# pEC50: −log10 of the molar value.
# Columns and labels:
# [1] = system: Zucker Diabetic Fatty (ZDF) rat; assay: Meal load test in type 2 diabetic model rats (postprandial blood glucose); format: in vivo; set-up: unit not given here; conditions: ZDF rats fasted overnight, oral 10 mg/kg in 5% Arabia gum, blood glucose one hour after meal loading (50 kcal/kg)
# Procedure, shortened: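 Overnight-fasted (17 h) ZDF rats, n=6 per group, given compound at 10 or 30 mg/kg orally in 5% Arabia gum 2 h before or just before a 50 kcal/kg AIN-93G meal load. Blood glucose at 1 h; effect expressed as BG1h difference from vehicle.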
# [2] = system: NaCT-CHO (CHO cells stably expressing human NaCT); assay: Assay of the citric acid cycle activation ([1,5-14C]-citric acid, diffusion of [14C]-CO2); format: cell-based; conditions: 1 hour incubation at 37° C. with [1,5-14C]-citric acid
# Procedure, shortened: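 NaCT-CHO cells (pME-CHO empty-vector cells for non-specific counts) were incubated 1 h at 37 °C in Na+-containing HEPES-Tris pH 7.4 with compound plus an equal volume of 0.4 mM [1,5-14C]-citric acid solution. Residual cell radioactivity was counted, [14C]-CO2 diffusion was taken as (Total−R)/(Total−NS)×100%, and EC50 was derived by regression.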
SMILES,BG1h (BG1h difference between compound group and vehicle group) [1],pEC50 [2]
"N#Cc1[nH]nnc1-c1cccc(/C=C/c2ccc(C(F)(F)F)cc2)c1 [Example 617, 5-{3-[(E)-2-(4-trifluoromethyl-phenyl)-vinyl]-phenyl}-3H-[1,2,3]triazole-4-carbonitrile]",−113.3,6.32
"N#Cc1[nH]nnc1-c1cc(/C=C/c2cccc(C(F)(F)F)c2)cc(C(F)(F)F)c1 [Example 620, 5-{3-trifluoromethyl-5-[(E)-2-(3-trifluoromethyl-phenyl)-vinyl]-phenyl}-3H-[1,2,3]triazole-4-carbonitrile]",−159.7,5.84
"N#Cc1[nH]nnc1-c1cc(Cl)cc(/C=C/c2ccc(F)cc2)c1 [Example 623, 5-{3-chloro-5-[(E)-2-(4-fluoro-phenyl)-vinyl]-phenyl}-3H-[1,2,3]triazole-4-carbonitrile]",−111.2,6.16
"Cc1cc(/C=C/c2ccc(F)cc2)cc(-c2nn[nH]c2C#N)c1 [Example 627, 5-{3-[(E)-2-(4-fluoro-phenyl)-vinyl]-5-methyl-phenyl}-3H-[1,2,3]triazole-4-carbonitrile]",−85.2,6.13
"N#Cc1[nH]nnc1-c1cc(/C=C/c2ccc(F)cc2)cc(OC(F)(F)F)c1 [Example 639, 5-{3-[(E)-2-(4-fluoro-phenyl)-vinyl]-5-trifluoromethoxy-phenyl}-3H-[1,2,3]triazole-4-carbonitrile]",−58.5,5.92
"N#Cc1[nH]nnc1-c1cccc(/C=C/c2ccc(F)cc2)c1 [Example 640, 5-{3-[(E)-2-(4-fluoro-phenyl)-vinyl]-phenyl}-3H-[1,2,3]triazole-4-carbonitrile]",−62.0,6.17
"CCOc1cc(/C=C/c2cccc(C(F)(F)F)c2)cc(-c2nn[nH]c2C#N)c1 [Example 644, 5-{3-ethoxy-5-[(E)-2-(3-trifluoromethyl-phenyl)-vinyl]-phenyl}-3H-[1,2,3]triazole-4-carbonitrile]",−131.0,5.63
"N#Cc1[nH]nnc1-c1cc(/C=C/c2ccc(F)cc2F)cc(C(F)(F)F)c1 [Example 645, 5-{3-[(E)-2-(2,4-difluoro-phenyl)-vinyl]-5-trifluoromethyl-phenyl}-3H-[1,2,3]triazole-4-carbonitrile]",−121.6,5.96
"N#Cc1[nH]nnc1-c1cccc(/C=C/c2ccc(F)cc2F)c1 [Example 646, 5-{3-[(E)-2-(2,4-difluoro-phenyl)-vinyl]-phenyl}-3H-[1,2,3]triazole-4-carbonitrile]",−89.3,6.21
"N#Cc1[nH]nnc1-c1cc(Cl)cc(/C=C/c2cccc(OC(F)(F)F)c2)c1 [Example 649, 5-{3-chloro-5-[(E)-2-(3-trifluoromethoxy-phenyl)-vinyl]-phenyl}-3H-[1,2,3]triazole-4-carbonitrile]",−99.4,5.61
"COc1cc(/C=C/c2cccc(C(F)(F)F)c2)cc(-c2nn[nH]c2C#N)c1 [Example 657, 5-{3-methoxy-5-[(E)-2-(3-trifluoromethyl-phenyl)-vinyl]-phenyl}-3H-[1,2,3]triazole-4-carbonitrile]",−120.5,5.94
"N#Cc1[nH]nnc1-c1cccc(/C=C/c2cc(F)cc(C(F)(F)F)c2)c1 [Example 659, 5-{3-[(E)-2-(3-fluoro-5-trifluoromethyl-phenyl)-vinyl]-phenyl}-3H-[1,2,3]triazole-4-carbonitrile]",−161.2,6.09
"N#Cc1[nH]nnc1-c1cccc(/C=C/c2ccc(F)c(C(F)(F)F)c2)c1 [Example 663, 5-{3-[(E)-2-(4-fluoro-3-trifluoromethyl-phenyl)-vinyl]-phenyl}-3H-[1,2,3]triazole-4-carbonitrile]",−149.5,5.90
"N#Cc1[nH]nnc1-c1cccc(-c2cc(C(F)(F)F)ccn2)c1 [Example 790, 5-[3-(4-trifluoromethyl-pyridin-2-yl)-phenyl]-3H-[1,2,3]triazole-4-carbonitrile]",−61.5,6.01
"Cc1cc(-c2ccc(C(F)(F)F)cn2)cc(-c2nn[nH]c2C#N)c1 [Example 807, 5-[3-methyl-5-(5-trifluoromethyl-pyridin-2-yl)-phenyl]-3H-[1,2,3]triazole-4-carbonitrile]",−94.5,5.96
"N#Cc1[nH]nnc1-c1cccc(-c2ccc3c(c2)OC(F)(F)O3)c1 [Example 931, 5-[3-(2,2-difluoro-benzo[1,3]dioxol-5-yl)-phenyl]-3H-[1,2,3]triazole-4-carbonitrile]",−76.4,6.16
"N#Cc1[nH]nnc1-c1cc(OC(F)(F)F)cc(-c2ccc3c(c2)OC(F)(F)O3)c1 [Example 934, 5-[3-(2,2-difluoro-benzo[1,3]dioxol-5-yl)-5-trifluoromethoxy-phenyl]-3H-[1,2,3]triazole-4-carbonitrile]",−87.2,6.29
"CCOc1cc(-c2nccc(C(F)(F)F)n2)cc(-c2nn[nH]c2C#N)c1 [Example 944, 5-[3-ethoxy-5-(4-trifluoromethyl-pyrimidin-2-yl)-phenyl]-38-[1,2,3]triazole-4-carbonitrile]",−125.1,6.00
"N#Cc1[nH]nnc1-c1cccc(/C=C/c2cc3ccccc3s2)c1 [Example 1004, 5-[3-((E)-2-benzo[b]thiophen-2-yl-vinyl)-phenyl]-3H-[1,2,3]triazole-4-carbonitrile]",−89.8,5.74
"N#Cc1[nH]nnc1-c1cccc(/C=C/c2ccc3c(c2)OC(F)(F)O3)c1 [Example 1017, 5-{3-[(E)-2-(2,2-difluoro-benzo[1,3]dioxol-5-yl)-vinyl]-phenyl}-3H-[1,2,3]triazole-4-carbonitrile]",−124.6,6.00
"N#Cc1[nH]nnc1-c1cccc(/C=C/c2cccc(C(F)(F)F)n2)c1 [Example 1018, 5-{3-[(E)-2-(6-trifluoromethyl-pyridin-2-yl)-vinyl]-phenyl}-3H-[1,2,3]triazole-4-carbonitrile]",−59.2,5.93
"CCc1sc(-c2ccc(Cl)cc2F)nc1-c1nn[nH]c1C#N [Example 1248, 5-[2-(4-chloro-2-fluoro-phenyl)-5-ethyl-thiazol-4-yl]-3H-[1,2,3]triazole-4-carbonitrile]",−82.2,5.52
"N#Cc1[nH]nnc1-c1ccc(/C=C/c2ccc(F)cc2)o1 [Example 1505, 5-{5-[(E)-2-(4-fluoro-phenyl)-vinyl]-furan-2-yl}-3H-[1,2,3]triazole-4-carbonitrile]",−123.5,6.38
"N#Cc1[nH]nnc1-c1cc(N2CCCCC2)nc(-c2ccccc2)n1 [Example 1672, 5-(2-phenyl-6-(piperidin-1-yl)-pyrimidin-4-yl)-3H-[1,2,3]triazole-4-carbonitrile]",−94.8,5.89
